Assay results taken from patent US20060282913A1, “Method of efficiently growing modified morning glory plant” (SKILL/VISION CO., LTD., priority 2003, published 2006).

Tested on: immature embryos of modified morning glory "aosakaikaryuubaseisaisakibotan"
Test: Embryoid body induction from cultured immature embryos with different phytohormones
Format: cell-based, Ipomoea nil
Settings: immature embryos cultured as in Example 1A (MS medium, 60 g/l sucrose, 25° C., 2000 lux; NAA 3 mg/l), phytohormone varied
Procedure: Immature embryos were obtained from a parent tree of modified morning glory “aosakaikaryuubaseisaisakibotan”. Each individual immature embryo was separately cultured on an MS medium containing 3 mg/l of NAA and 60 g/l of sucrose at 25° C. under 2000 lux, to thereby obtain an embryoid body from the immature embryo. Each embryoid body obtained from different immature embryo was separately cultured as a discrete strain. Subculturing was repeated using the same medium at an interval of 4 weeks.
In substantially the same manner as in Example 1A, immature embryos were cultured except that phytohormone other than NAA, such as 4-fluorophenoxyacetic acid, 2,4-dichlorophenoxyacetic acid and picloram were used. As is apparent from a result shown in Table 4, in the case of phytohormone other than NAA, no embryoid bodies were produced, and thus mass proliferation was not attained.

Compound: O=C(O)COc1ccc(F)cc1 [4-fluorophenoxyacetic acid]
- Number of embryoid bodies formed per immature embryo: 0

Compound: O=C(O)COc1ccc(Cl)cc1Cl [2,4-dichlorophenoxyacetic acid]
- Number of embryoid bodies formed per immature embryo: 0

Compound: Nc1c(Cl)c(Cl)nc(C(=O)O)c1Cl [Picloram, picloram]
- Number of embryoid bodies formed per immature embryo: 0

Compound: O=C(O)Cc1cccc2ccccc12 [NAA]
- Number of embryoid bodies formed per immature embryo: 10
